Converted amounts (≈) assume the structure as drawn. Read-outs that look alike come from different tables or passages of the source.
Tests used:
Aspergillus niger = assay: FISP disc diffusion assay, zone of inhibition; type: cell-based; details: 24 h, CH2Cl2, 250 μg/ml, agar diffusion, two lines for this species, read-out: Zone: diameter of the zone of inhibition of growth
From the text: (§1) The FISP assay employs disc diffusion susceptibility testing methods to generate a spectrum of activity against a panel of representative yeasts, filamentous fungi and bacteria.
(§2) The filamentous fungi used in the assay were Penicillium sp. Aspergillus niger, Trichoderma sp., Phoma sp., Trichoderma lignorum, Fusarium oxysporum, Ustilago maydis, Ceratocystis ulmi, Alternaria soloni, Verticillium serrae, Botrytis allii, Scopulariopsis communis, Cephalosporium sp., Cercospora beticola, Rhizomucor miehei, Aspergillus flavus and Aspergillus fumigatus.
(§3) For carrying out the assay, seeded assay plates are prepared in the following manner according to the type of assay strain.
(§4) Inocula for filamentous fungi are prepared by scraping the surface of stock plates maintained on potato dextrose agar with a moistened sterile dacron swab. The spores and mycelia are then suspended in 10 milliliters of sterile potato dextrose broth and adjusted to 65 percent transmission at 660 nm.
(§5) Assay plates for the yeasts and filamentous fungi are prepared by diluting the inoculum into appropriate molten agar medium, cooled to 45° C. to obtain a final concentration of 4 percent.
(§6) The seeded agar media thus prepared are dispensed into petri dishes for assays (11 milliliters per dish). […]
(§7) Following incubation, the inhibition zones are measured and recorded. […]

Cephalosporium sp. = assay: FISP disc diffusion assay, zone of inhibition; type: cell-based; design: key: clear zone throughout, sharp edges; F: clear zone, fuzzy edges; S: slightly hazy zone (some growth observed throughout zone); H: hazy zone (considerable growth observed throughout zone); V: very hazy zone (zone of inhibition is barely discernable); R: zone displays a ring of resistant growth; details: CH2Cl2, 250 μg/ml
From the text: as §1, §2, §3, §4, §5
(§8) The seeded agar media thus prepared are dispensed into petri dishes for assays (11 milliliters per dish).
(§9) The samples to be tested for production of antifungal agent are applied to 6.2 mm. filter paper discs (25 microliter/disc) and air dried at 24° C. When the sample to be tested is crude broth, it may be centrifuged prior to application. The discs bearing the material to be tested are then applied employing sterile conditions to the seeded assay plates. The assay plates are then incubated at either 28° C. or 37° C. for 24 hours. In one of the assays for Bacillus subtilis, the sample is applied to a disc previously impregnated with 4M potassium chloride at 25 μl/disc and then air dried.
(§10) Following incubation, the inhibition zones are measured and recorded. The measurements are made from the extreme edge where growth differs from the background zone. […]

Ceratocystis ulmi = assay: FISP disc diffusion assay, zone of inhibition; type: cell-based; design: key: clear zone throughout, sharp edges; F: clear zone, fuzzy edges; S: slightly hazy zone (some growth observed throughout zone); H: hazy zone (considerable growth observed throughout zone); V: very hazy zone (zone of inhibition is barely discernable); R: zone displays a ring of resistant growth; details: CH2Cl2, 250 μg/ml
From the text: as §1, §2, §3, §4, §5, §8, §9, §10

Phoma sp. = assay: FISP disc diffusion assay, zone of inhibition; type: cell-based; design: key: clear zone throughout, sharp edges; F: clear zone, fuzzy edges; S: slightly hazy zone (some growth observed throughout zone); H: hazy zone (considerable growth observed throughout zone); V: very hazy zone (zone of inhibition is barely discernable); R: zone displays a ring of resistant growth; details: CH2Cl2, 250 μg/ml
From the text: as §1, §2, §3, §4, §5, §8, §9, §10

Bacillus subtilis = assay: FISP disc diffusion assay, zone of inhibition; type: cell-based; details: CH2Cl2, 250 μg/ml, agar diffusion
Description: as §1
The bacteria employed in the assay are Streptomyces sp., Acholeplasma laidlawii and Bacillus subtilis.
as §3
Seeded agar for Bacillus subtilis are prepared from a commercially available spore suspension which is diluted directly into molten agar (45° C.) to obtain a final concentration of 0.1 percent.
as §8, §9, §7

Candida albicans [1] = assay: FISP disc diffusion assay, zone of inhibition; type: cell-based; details: 24 h, CH2Cl2, 250 μg/ml, agar diffusion, five lines without medium suffix, read-out: Zone: diameter of the zone of inhibition of growth
From the text: as §1
(§11) The yeasts employed in the assay are Saccharomyces cerevisiae, Candida albicans, Candida tropicalis, Candida rugosa, Brettanomyces bruxellensis, Torulospora hansenii, Candida guilliermondi, Candida pseudotropicalis, Torulopsis glabrata, Cryptococcus albidus, Cryptococcus laurentii and Kluyveromyces fragilis.
as §3
(§12) Inocula for yeasts and bacterial strains are prepared from overnight broth cultures then diluted into potato dextrose agar to a final concentration of either 40 percent or 70 percent transmission at 660 nm.
(§13) For three strains of Candida albicans and one strain of Saccharomyces cerevisiae, sterile saline is employed in place of potato dextrose broth.
as §5, §6, §7

Saccharomyces cerevisiae [2] = assay: FISP disc diffusion assay, zone of inhibition; type: cell-based; details: 24 h, CH2Cl2, 250 μg/ml, agar diffusion, two lines without medium suffix, read-out: Zone: diameter of the zone of inhibition of growth
From the text: as §1, §11, §3, §12, §13, §5, §6, §7

Candida guilliermondii [3] = assay: FISP disc diffusion assay, zone of inhibition; type: cell-based; details: Meyerozyma guilliermondii, 24 h; CH2Cl2, 250 μg/ml; agar diffusion; read-out: Zone: diameter of the zone of inhibition of growth
From the text: as §1, §11, §3, §12, §5, §8
(§14) The samples to be tested for production of antifungal agent are applied to 6.2 mm. filter paper discs (25 microliter/disc) and air dried at 24° C. […]
as §7

Torulopsis glabrata = assay: FISP disc diffusion assay, zone of inhibition; type: cell-based; details: Nakaseomyces glabratus, 24 h; CH2Cl2, 250 μg/ml; agar diffusion; read-out: Zone: diameter of the zone of inhibition of growth
From the text: as §1, §11, §3, §12, §5, §8, §14, §7

Torulospora hansenii = assay: FISP disc diffusion assay, zone of inhibition; type: cell-based; design: key: clear zone throughout, sharp edges; F: clear zone, fuzzy edges; S: slightly hazy zone (some growth observed throughout zone); H: hazy zone (considerable growth observed throughout zone); V: very hazy zone (zone of inhibition is barely discernable); R: zone displays a ring of resistant growth; details: CH2Cl2, 250 μg/ml
From the text: as §1, §11, §3, §12, §5, §8, §14, §7

Candida albicans [4] = assay: Microdilution Broth Assay (MIC/MFC); type: cell-based
Description: (§15) The broad spectrum antifungal activity of the present compounds was further determined by broth dilution methods. The compounds are particularly active towards filamentous fungi and yeasts including Candida albicans and Crypt. neoformans. The sensitivity of filamentous fungi and yeasts was determined using inhibitor dilution assays in microtiter format. A standardized spore suspension for testing the filamentous fungi was prepared by inoculating sterile distilled water with spores such that 1.5-7.5×10^3 colony forming units were added per well. The microtiter wells were filled with 75 μl of yeast nitrogen base containing 1% Dextrose medium (YNB/D) containing compound. Fifty μl of inoculated YNB/D medium was then added to the wells.
(§16) The sensitivity of yeasts was determined by inoculating sterile distilled water with aliquots of a 4-hour yeast culture grown in Yeast Morphology (YM) media at 35° C. and diluting in YNB/D to yield a final concentration of 1.5-7.5×10^3 colony forming units/well. Seventy-five μl of inoculated media was added per well. To test the sensitivity of yeast, compound was solubilized in 10 percent aqueous DMSO at 2.56 mg/ml. The compound was diluted serially in YNB/D from 128 to 0.06 μg/ml. The wells were filled with 75 μl of drug containing media. […] Representative of the antifungal activity are the minimum inhibitory concentration and minimum fungicidal concentration data shown below in Table II: […]

Candida guilliermondii [5] = assay: Microdilution Broth Assay (MIC/MFC); type: cell-based; details: Meyerozyma guilliermondii, strain MY 1019
Description: as §15, §16

Candida parapsilosis = assay: Microdilution Broth Assay (MIC/MFC); type: cell-based; details: Lodderomyces parapsilosis; strain MY 1010; read-out: MFC (minimum fungicidal concentration)
Description: as §15, §16

Candida tropicalis = assay: Microdilution Broth Assay (MIC/MFC); type: cell-based
Description: as §15, §16

Cryptococcus neoformans = assay: Microdilution Broth Assay (MIC/MFC); type: cell-based; details: for MIC: 35° C., read-out: MIC (minimum inhibitory concentration)
Description: as §15, §16

Saccharomyces cerevisiae [6] = assay: Microdilution Broth Assay (MIC/MFC); type: cell-based
Description: as §15, §16

[7] = light stability on isolation and handling; type: physicochemical

CC(/C=C/C=C(\C)C(O)C(C)C(=O)O[C@H]1C[C@H](C)C=C2C=C[C@@]3(C)O[C@@H](O)CC(=O)[C@]3(C)[C@H]21)=C\C=C\C(=O)O (some centres unmarked) [Compound A]
zone of inhibition at 250 µg/mL (Aspergillus niger): 0 mm | Zone quality (qualifier) (Cephalosporium sp.): F | Zone quality (qualifier) (Ceratocystis ulmi): V | Zone quality (qualifier) (Phoma sp.): S | zone of inhibition at 250 µg/mL (Bacillus subtilis; Bacillus subtilis, 24 h, KCl (disc impregnated with 4M potassium chloride), read-out: Zone: diameter of the zone of inhibition of growth): 0 mm | Zone: diameter of the zone of inhibition of growth (Bacillus subtilis): 0 mm | zone of inhibition at 250 µg/mL (Candida albicans [1]): 0 mm | zone of inhibition at 250 µg/mL (Saccharomyces cerevisiae [2]): 0 mm | zone of inhibition at 250 µg/mL (Candida guilliermondii [3]): 0 mm | zone of inhibition at 250 µg/mL (Torulopsis glabrata): 0 mm | Zone quality (qualifier) (Torulospora hansenii): H | MIC (Candida albicans [4]; Candida albicans, strain MY 1055, 24 to 48 hours, 35° C., read-out: MIC (minimum inhibitory concentration)): ≤ 0.06 µg/mL | MFC (Candida albicans [4]; Candida albicans, strain MY 1055, read-out: MFC (minimum fungicidal concentration)): ≤ 0.06 µg/mL | MFC (minimum fungicidal concentration) (Candida albicans [4]; strain MY 1028): ≤ 0.06 µg/mL | MIC (minimum inhibitory concentration) (Candida albicans [4]; strain MY 1028, 24 to 48 hours, 35° C.): ≤ 0.06 µg/mL | MIC (Candida guilliermondii [5]; 24 to 48 hours, 35° C., read-out: MIC (minimum inhibitory concentration)): > 128 µg/mL | MFC (Candida guilliermondii [5]; read-out: MFC (minimum fungicidal concentration)): > 128 µg/mL | MFC (Candida parapsilosis): 0.25 µg/mL (≈ 0.462 µM) | MIC (Candida tropicalis; strain MY 1012, 24 to 48 hours, 35° C., read-out: MIC (minimum inhibitory concentration)): ≤ 0.06 µg/mL | MFC (Candida tropicalis; strain MY 1012, read-out: MFC (minimum fungicidal concentration)): 0.5 µg/mL (≈ 0.925 µM) | MFC (Cryptococcus neoformans; strain MY 1051, read-out: MFC (minimum fungicidal concentration)): 32 µg/mL (≈ 59.2 µM) | MIC (Cryptococcus neoformans; strain MY 1146, 24 to 48 hours): 128 µg/mL (≈ 237 µM) | MFC (Cryptococcus neoformans; strain MY 1146, read-out: MFC (minimum fungicidal concentration)): 64 µg/mL (≈ 118 µM) | MIC (Cryptococcus neoformans; strain MY 2061, 24 to 48 hours): 128 µg/mL (≈ 237 µM) | MFC (Cryptococcus neoformans; strain MY 2061, read-out: MFC (minimum fungicidal concentration)): 64 µg/mL (≈ 118 µM) | MIC (Saccharomyces cerevisiae [6]; strain MY 1976, 24 to 48 hours, 35° C., read-out: MIC (minimum inhibitory concentration)): > 128 µg/mL | MFC (Saccharomyces cerevisiae [6]; strain MY 1976, read-out: MFC (minimum fungicidal concentration)): > 128 µg/mL | light sensitivity [7]: light sensitive | stability ([7]; isolated and worked with in the absence of light): stable

— patent publication US5182298A, “Cholesterol lowering agents” (Merck & Co., Inc., priority 1991, dated 1993)
